According to patent publication US9221796B2, “Selective NR2B antagonists” (BRISTOL-MYERS SQUIBB COMPANY, priority 2014, dated 2015):

Each compound was assayed against NR2B-subtype NMDA receptors (Rattus norvegicus (Rat), UniProt P35439+Q00960) (assay: Radioligand binding assay (3H Ro 25-6981 competition, forebrain membranes)). Conditions: 3H Ro 25-6981 (4 nM), read-out: NR2B Binding Ki.
Experimental: Radioligand Binding Assay. […] Buchy D; Klingelschmidt A; Messer J; Bleuel Z; Kemp J A; Richards J G. […] Thawed brains were homogenized using a Dounce homogenizer and centrifuged at 48000×g for 20 min. The pellet was resuspended in cold buffer and homogenized again using a Dounce homogenizer. […] After incubation for 1 hr at room temperature, the membrane bound radioligand was harvested on to GF/B filter plates (treated with 0.5% PEI for 1 hr at room temperature). The filter plates were dried at 50° C. for 20 mins, incubated with microscint 20 for 10 minutes and finally, the counts were read on TopCount (Perkin Elmer). […] CPM values were converted to % inhibition and the concentration response curves were plotted using custom made software. Each experiment was repeated at least twice to obtain the final binding Ki values for experimental compounds.

NR2B-subtype NMDA receptors, sequence (Q00960 27-1482, other chains not shown): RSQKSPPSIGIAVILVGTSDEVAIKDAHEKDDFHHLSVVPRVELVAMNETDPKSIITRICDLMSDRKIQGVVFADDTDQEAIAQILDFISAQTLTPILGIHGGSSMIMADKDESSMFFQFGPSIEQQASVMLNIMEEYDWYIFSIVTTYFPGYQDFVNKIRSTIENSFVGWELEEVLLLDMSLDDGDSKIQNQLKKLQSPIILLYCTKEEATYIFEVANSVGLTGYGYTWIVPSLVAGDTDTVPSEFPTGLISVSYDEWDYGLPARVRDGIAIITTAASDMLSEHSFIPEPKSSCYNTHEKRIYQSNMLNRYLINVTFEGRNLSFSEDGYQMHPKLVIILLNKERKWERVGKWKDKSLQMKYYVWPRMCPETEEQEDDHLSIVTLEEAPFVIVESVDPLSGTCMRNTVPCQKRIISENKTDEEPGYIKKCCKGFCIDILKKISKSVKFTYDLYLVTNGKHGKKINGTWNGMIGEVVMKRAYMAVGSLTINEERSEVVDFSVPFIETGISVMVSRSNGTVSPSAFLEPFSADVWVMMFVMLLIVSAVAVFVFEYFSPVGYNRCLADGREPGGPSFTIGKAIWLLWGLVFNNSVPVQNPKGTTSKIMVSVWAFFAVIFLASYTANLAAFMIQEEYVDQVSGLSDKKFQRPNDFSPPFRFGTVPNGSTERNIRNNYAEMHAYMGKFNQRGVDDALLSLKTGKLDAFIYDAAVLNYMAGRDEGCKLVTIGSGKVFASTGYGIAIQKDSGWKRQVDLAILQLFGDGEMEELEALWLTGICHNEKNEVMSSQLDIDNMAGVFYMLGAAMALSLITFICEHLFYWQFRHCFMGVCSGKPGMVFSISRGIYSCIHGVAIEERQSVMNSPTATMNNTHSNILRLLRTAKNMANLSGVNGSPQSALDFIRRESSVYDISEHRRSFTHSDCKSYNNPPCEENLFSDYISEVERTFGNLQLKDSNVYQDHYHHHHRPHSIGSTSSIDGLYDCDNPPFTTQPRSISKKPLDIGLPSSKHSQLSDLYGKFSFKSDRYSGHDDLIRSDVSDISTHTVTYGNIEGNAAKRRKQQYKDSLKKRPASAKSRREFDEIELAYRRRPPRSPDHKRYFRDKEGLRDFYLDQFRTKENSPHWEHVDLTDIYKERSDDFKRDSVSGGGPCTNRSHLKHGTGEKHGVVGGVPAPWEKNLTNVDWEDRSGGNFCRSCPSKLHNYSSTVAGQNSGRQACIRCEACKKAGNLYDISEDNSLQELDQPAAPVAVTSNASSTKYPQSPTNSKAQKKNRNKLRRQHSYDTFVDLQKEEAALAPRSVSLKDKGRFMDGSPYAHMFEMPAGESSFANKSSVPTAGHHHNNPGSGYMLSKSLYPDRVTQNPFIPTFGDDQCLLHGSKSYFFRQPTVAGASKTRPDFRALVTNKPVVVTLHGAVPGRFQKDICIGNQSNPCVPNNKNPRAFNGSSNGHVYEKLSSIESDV

Ki [nM] | SMILES
510 | O=C1C(N2CC(c3ccc(O)cc3)C2)CCN1Cc1ccc(F)cc1 (stereo not drawn) [Example 11, 1-(4-Fluorobenzyl)-3-(3-(4-hydroxyphenyl)azetidin-1-yl)pyrrolidin-2-one]
480 | O=C1C(N2CCC(c3ccc(O)cc3)CC2)CCCN1Cc1ccccc1 (stereo not drawn) [Example 40, 1′-Benzyl-4-(4-hydroxyphenyl)-[1,3′-bipiperidin]-2′-one]
12 | O=C1C(N2CCC(c3ccc(O)cc3)CC2)CCN1Cc1ccc(Cl)c(F)c1 (stereo not drawn) [Example 15, 1-(4-Chloro-3-fluorobenzyl)-3-(4-(4-hydroxyphenyl)piperidin-1-yl)pyrrolidin-2-one]
4 | O=C1C(N2CCC(c3ccc(O)cc3)CC2)CCN1Cc1ccccc1 (stereo not drawn) [Example 12, 1-Benzyl-3-(4-(4-hydroxyphenyl)piperidin-1-yl)pyrrolidin-2-one]
420 | Cc1ccc(CN2CC[C@H](N3CC(c4ccc(O)cc4)C3)C2=O)cc1 [Example 28a, (S)-3-(3-(4-Hydroxyphenyl)azetidin-1-yl)-1-(4-methylbenzyl)pyrrolidin-2-one]

Continued, compound first:

SMILES | Ki [nM]
Cc1ccc(CN2CC[C@H](N3CC[C@H](c4ccc(O)cc4)[C@@H](F)C3)C2=O)cc1F [Example 47, P-2, (S)-3-((3R,4R)-3-fluoro-4-(4-hydroxyphenyl)piperidin-1-yl)-1-(3-fluoro-4-methylbenzyl)pyrrolidin-2-one] | 470
O=C1C(N2CC[C@@H](c3ccc(O)cc3)[C@H](F)C2)CCN1Cc1ccc(OC(F)F)cc1 (stereo partly drawn) [Example 61, 1-(4-(Difluoromethoxy)benzyl)-3-((3S,4S)-3-fluoro-4-(4-hydroxyphenyl)piperidin-1-yl)pyrrolidin-2-one] | 46
O=C1C(N2CCC(c3ccc(O)cc3)C(F)(F)C2)CCN1Cc1ccc(F)c(Cl)c1 (stereo not drawn) [Example 111, 1-(3-Chloro-4-fluorobenzyl)-3-(3,3-difluoro-4-(4-hydroxyphenyl)piperidin-1-yl)pyrrolidin-2-one] | 590
Cc1ccc(CN2CC[C@H](N3CC[C@@H](c4ccc(O)cc4)[C@H](F)C3)C2=O)cc1F [Example 47, P-1, (S)-3-((3S,4S)-3-Fluoro-4-(4-hydroxyphenyl)piperidin-1-yl)-1-(3-fluoro-4-methylbenzyl)pyrrolidin-2-one] | 470
Cc1ccc(N2CC[C@H](N3CC[C@H](c4ccc(O)cc4)[C@@H](F)C3)C2=O)cc1F [Example 49, P-1, (S)-3-((3R,4R)-3-fluoro-4-(4-hydroxyphenyl)piperidin-1-yl)-1-(3-fluoro-4-methylphenyl)pyrrolidin-2-one] | 420
O=C1[C@@H](N2CC[C@H](c3ccc(O)cc3)[C@@H](F)C2)CCN1Cc1ccc(Cl)cc1 [Example 80, (S)-1-(4-Chlorobenzyl)-3-((3R,4R)-3-fluoro-4-(4-hydroxyphenyl)piperidin-1-yl)pyrrolidin-2-one] | 560
Cc1cccc(CN2CCC(N3CC[C@H](c4ccc(O)cc4)[C@@H](F)C3)C2=O)c1 (stereo partly drawn) [Example 77, 3-((3R,4R)-3-Fluoro-4-(4-hydroxyphenyl)piperidin-1-yl)-1-(3-methylbenzyl)pyrrolidin-2-one] | 27
O=C1C(N2CCC(c3ccc(O)cc3)C(O)C2)CCN1Cc1ccc(F)cc1 (single isomer, unassigned) [Example 9b, 1-(4-Fluorobenzyl)-3-(3-hydroxy-4-(4-hydroxyphenyl)-piperidin-1-yl)pyrrolidin-2-one] | 1400
O=C1[C@H](N2CC[C@H](c3ccc(O)cc3)[C@@H](F)C2)CCN1Cc1ccc(Cl)c(F)c1 [Example 83, (R)-1-(4-Chloro-3-fluorobenzyl)-3-((3R,4R)-3-fluoro-4-(4-hydroxyphenyl)piperidin-1-yl)pyrrolidin-2-one] | 5
O=C1[C@@H](N2CCC(c3ccc(O)cc3)C(F)(F)C2)CCN1c1ccc(OC(F)F)c(Cl)c1 (stereo partly drawn) [Example 101, P-1, (3S)-1-(3-Chloro-4-(difluoromethoxy)phenyl)-3-(3,3-difluoro-4-(4-hydroxyphenyl)-piperidin-1-yl)pyrrolidin-2-one] | 13
